For this assay, the system named is recombinant NL4-3 virus (Renilla luciferase) in MT-2 cells. The assay can be described thus: HIV cell culture assay (antiviral activity, luciferase readout in infected MT-2 cells). The format is cell-based. The protocol:
HIV cell culture assay—MT-2 cells, 293T cells and the proviral DNA clone of NL4-3 virus were obtained from the NIH AIDS Research and Reference Reagent Program. MT-2 cells were propagated in RPMI 1640 media supplemented with 10% heat inactivated fetal bovine serum (FBS), 100 ug/ml penicillin G and up to 100 units/ml streptomycin. The 293T cells were propagated in DMEM media supplemented with 10% heat inactivated FBS, 100 ug/ml penicillin G and 100 ug/ml streptomycin. A recombinant NL4-3 proviral clone, in which a section of the nef gene was replaced with the Renilla luciferase gene, was used to make the reference virus used in these studies. The recombinant virus was prepared through transfection of the recombinant NL4-3 proviral clone into 293T cells using Transit-293 Transfection Reagent from Mirus Bio LLC (Madison, Wis.). Supernatent was harvested after 2-3 days after transfection, and the amount of virus present was titered in MT-2 cells using luciferase enzyme activity as a marker. Luciferase activity was quantitated using the EnduRen Live Cell Substrate from Promega (Madison, Wis.). Antiviral activities of compounds toward the recombinant virus were quantified by measuring luciferase activity in MT-2 cells infected for 4-5 days with the recombinant virus in the presence of serial dilutions of the compound.
The 50% effective concentration (EC50) was calculated by using the exponential form of the median effect equation where (Fa)=1/[1+(ED50/drug conc.)^m](Johnson V A, Byington R T. Infectivity Assay. In Techniques in HIV Research. ed. Aldovini A, Walker B D. 71-76. New York: Stockton Press. 1990).

Where [1] appears, read: Renilla, NL43, read-out: Activity, antiviral activity class, recombinant NL4-3 Renilla luciferase virus in MT-2 cells.
[2] abbreviates: Renilla, NL43, recombinant NL4-3 Renilla luciferase virus in MT-2 cells.

Where two headings read alike, the source gives them in different places.

In the case of `CN(C(=O)[C@H](Cc1ccccc1)NC(=O)NS(=O)(=O)c1ccccc1Br)c1ccc2c(c1)OCO2` [Example 29, (S)—N-(benzo[d][1,3]dioxol-5-yl)-2-(3-((2-bromophenyl)sulfonyl)ureido)-N-methyl-3-phenylpropanamide], the EC50 under setting [1] is under 100 nM. Consider `COc1ccc(OC)c(S(=O)(=O)NC(=O)N[C@@H](Cc2ccccc2)C(=O)N(C)c2ccc3c(c2)OCO3)c1` [Example 30, (S)—N-(benzo[d][1,3]dioxol-5-yl)-2-(3-((2,5-dimethoxyphenyl)sulfonyl)ureido)-N-methyl-3-phenylpropanamide], for which the EC50 under setting [1] is under 100 nM.

On to `CN(C(=O)[C@H](Cc1ccccc1)NC(=O)NS(=O)(=O)c1cccs1)c1ccc2c(c1)OCO2` [Example 31, (S)—N-(benzo[d][1,3]dioxol-5-yl)-N-methyl-3-phenyl-2-(3-(thiophen-2-ylsulfonyl)ureido)propanamide], for which the EC50 under setting [1] was in the range of 100 to 1000 nM. Regarding `CN(C(=O)[C@H](Cc1ccccc1)NC(=O)NS(=O)(=O)c1cc(Cl)sc1Cl)c1ccc2c(c1)OCO2` [Example 32, (S)—N-(benzo[d][1,3]dioxol-5-yl)-2-(3-((2,5-dichlorothiophen-3-yl)sulfonyl)ureido)-N-methyl-3-phenylpropanamide], the EC50 was under 100 nM under setting [1] and 70 nM under setting [2].

Consider `Cc1nn(C)c(Cl)c1S(=O)(=O)NC(=O)N[C@@H](Cc1ccccc1)C(=O)N(C)c1ccc2c(c1)OCO2` [Example 33, (S)—N-(benzo[d][1,3]dioxol-5-yl)-2-(3-((5-chloro-1,3-dimethyl-1H-pyrazol-4-yl)sulfonyl)ureido)-N-methyl-3-phenylpropanamide], for which the EC50 is, setting by setting: under setting [1], 100 to 1000 nM; under setting [2], 210 nM. On to `CN(C(=O)[C@H](Cc1ccccc1)NC(=O)NS(=O)(=O)c1ccccc1F)c1ccc2c(c1)OC(F)(F)O2` [Example 34, (S)—N-(2,2-difluorobenzo[d][1,3]dioxol-5-yl)-2-(3-((2-fluorophenyl)sulfonyl)ureido)-N-methyl-3-phenylpropanamide], for which the EC50 under setting [1] is 100 to 1000 nM. As for `CN(C(=O)[C@H](Cc1cc(F)cc(F)c1)NC(=O)NS(=O)(=O)c1ccccc1F)c1ccc2c(c1)OC(F)(F)O2` [Example 35, (S)—N-(2,2-difluorobenzo[d][1,3]dioxol-5-yl)-3-(3,5-difluorophenyl)-2-(3-((2-fluorophenyl)sulfonyl)ureido)-N-methylpropanamide], the EC50 under setting [1] is 100 to 1000 nM.

As for `CN(C(=O)[C@H](Cc1ccccc1)NC(=O)NS(=O)(=O)c1ccccc1)c1ccc2c(c1)OC(F)(F)O2` [Example 36, (S)—N-(2,2-difluorobenzo[d][1,3]dioxol-5-yl)-N-methyl-3-phenyl-2-(3-(phenylsulfonyl)ureido)propanamide], under setting [1], the EC50 was 1000 to 10000 nM.

As for `Cc1ccccc1S(=O)(=O)NC(=O)N[C@@H](Cc1ccccc1)C(=O)N(C)c1ccc2c(c1)OC(F)(F)O2` [Example 37, (S)—N-(2,2-difluorobenzo[d][1,3]dioxol-5-yl)-N-methyl-3-phenyl-2-(3-(o-tolylsulfonyl)ureido)propanamide], under setting [1], the EC50 is 100 to 1000 nM. Turning to `CN(C(=O)[C@H](Cc1ccccc1)NC(=O)NS(=O)(=O)c1ccccc1Cl)c1ccc2c(c1)OC(F)(F)O2` [Example 38, (S)-2-(3-((2-chlorophenyl)sulfonyl)ureido)-N-(2,2-difluorobenzo[d][1,3]dioxol-5-yl)-N-methyl-3-phenylpropanamide], the EC50 is, setting by setting: under setting [1], 100 to 1000 nM; under setting [2], 310 nM. `CN(C(=O)[C@H](Cc1cc(F)cc(F)c1)NC(=O)NS(=O)(=O)c1ccccc1Cl)c1ccc2c(c1)OC(F)(F)O2` [Example 39, (S)-2-(3-((2-chlorophenyl)sulfonyl)ureido)-N-(2,2-difluorobenzo[d][1,3]dioxol-5-yl)-3-(3,5-difluorophenyl)-N-methylpropanamide]: the EC50 under setting [1] is 100 to 1000 nM. `Cc1ccccc1S(=O)(=O)NC(=O)N[C@@H](Cc1cc(F)cc(F)c1)C(=O)N(C)c1ccc2c(c1)OC(F)(F)O2` [Example 40, (S)—N-(2,2-difluorobenzo[d][1,3]dioxol-5-yl)-3-(3,5-difluorophenyl)-N-methyl-2-(3-(o-tolylsulfonyl)ureido)propanamide]: the EC50 under setting [1] is 100 to 1000 nM. On the same count and under the same terms, next, `CN(C(=O)[C@H](Cc1cc(F)cc(F)c1)NC(=O)NS(=O)(=O)c1ccccc1)c1ccc2c(c1)OC(F)(F)O2` [Example 41, (S)—N-(2,2-difluorobenzo[d][1,3]dioxol-5-yl)-3-(3,5-difluorophenyl)-N-methyl-2-(3-(phenylsulfonyl)ureido)propanamide]: 100 to 1000 nM. For the compound `CN(C(=O)[C@H](Cc1ccccc1)NC(=O)NS(=O)(=O)C1CC1)c1ccc2c(c1)OCO2` [Example 42, (S)—N-(benzo[d][1,3]dioxol-5-yl)-2-(3-(cyclopropylsulfonyl)ureido)-N-methyl-3-phenylpropanamide], the EC50 is, setting by setting: under setting [1], 100 to 1000 nM; under setting [2], 480 nM.

As for `CC(C)S(=O)(=O)NC(=O)N[C@@H](Cc1ccccc1)C(=O)N(C)c1ccc2c(c1)OCO2` [Example 43, (S)—N-(benzo[d][1,3]dioxol-5-yl)-2-(3-(isopropylsulfonyl)ureido)-N-methyl-3-phenylpropanamide], the EC50 under setting [1] lay within 100 to 1000 nM. Regarding `CN(C(=O)[C@H](Cc1ccccc1)NC(=O)NS(C)(=O)=O)c1ccc2c(c1)OCO2` [Example 44, (S)—N-(benzo[d][1,3]dioxol-5-yl)-N-methyl-2-(3-(methylsulfonyl)ureido)-3-phenylpropanamide], the EC50 was 1000 to 10000 nM under setting [1] and 2480 nM under setting [2].

For the compound `CC(C)CS(=O)(=O)NC(=O)N[C@@H](Cc1ccccc1)C(=O)N(C)c1ccc2c(c1)OCO2` [Example 45, (S)—N-(benzo[d][1,3]dioxol-5-yl)-2-(3-(isobutylsulfonyl)ureido)-N-methyl-3-phenylpropanamide], the EC50 under setting [1] was in the range of 100 to 1000 nM. For the compound `CN(C(=O)[C@H](Cc1ccccc1)NC(=O)NS(=O)(=O)C(C)(C)C)c1ccc2c(c1)OCO2` [Example 46, (S)—N-(benzo[d][1,3]dioxol-5-yl)-2-(3-(tert-butylsulfonyl)ureido)-N-methyl-3-phenylpropanamide], the EC50 under setting [1] lay within 1000 to 10000 nM. As for `CN(C(=O)[C@H](Cc1ccccc1)NC(=O)N(C)S(=O)(=O)c1ccccc1Br)c1ccc2c(c1)OCO2` [Example 47, (S)—N-(benzo[d][1,3]dioxol-5-yl)-2-(3-((2-bromophenyl)sulfonyl)-3-methylureido)-N-methyl-3-phenylpropanamid], under setting [1], the EC50 was 1000 to 10000 nM.

Regarding `CN(C(=O)[C@H](Cc1ccccc1)NC(=O)NS(=O)(=O)c1ccccc1-c1cnn(C)c1)c1ccc2c(c1)OCO2` [Example 49, (S)—N-(benzo[d][1,3]dioxol-5-yl)-N-methyl-2-(3-((2-(1-methyl-1H-pyrazol-4-yl)phenyl)sulfonyl)ureido)-3-phenylpropanamide], the EC50 by setting is: under setting [2], 1340 nM; (read-out: Activity, antiviral activity class, recombinant NL4-3 Renilla luciferase virus in MT-2 cells) 1000 to 10000 nM. With `CN(C(=O)[C@H](Cc1ccccc1)NC(=O)NS(=O)(=O)c1ccccc1-c1ccoc1)c1ccc2c(c1)OCO2` [Example 50, (S)—N-(benzo[d][1,3]dioxol-5-yl)-2-(3-((2-(furan-3-yl)phenyl)sulfonyl)ureido)-N-methyl-3-phenylpropanamide], the EC50 under setting [1] was in the range of 100 to 1000 nM. As to `Cc1ccccc1S(=O)(=O)NC(=O)N[C@@H](Cc1ccc(Cl)cc1)C(=O)N(C)c1ccc2c(c1)OCO2` [Example 51, (S)—N-(benzo[d][1,3]dioxol-5-yl)-3-(4-chlorophenyl)-N-methyl-2-(3-(o-tolylsulfonyl)ureido)propanamide], the EC50 was 100 to 1000 nM under setting [1] and 490 nM under setting [2]. Regarding `CCOc1ccc(C[C@H](NC(=O)NS(=O)(=O)c2ccccc2C)C(=O)N(C)c2ccc3c(c2)OCO3)cc1` [Example 52, (S)—N-(benzo[d][1,3]dioxol-5-yl)-3-(4-ethoxyphenyl)-N-methyl-2-(3-(o-tolylsulfonyl)ureido)propanamide], the EC50 reads like this: under setting [1], 1000 to 10000 nM; under setting [2], 6230 nM. Take `Cc1ccccc1C[C@H](NC(=O)NS(=O)(=O)c1ccccc1C)C(=O)N(C)c1ccc2c(c1)OCO2` [Example 53, (S)—N-(benzo[d][1,3]dioxol-5-yl)-N-methyl-3-(o-tolyl)-2-(3-(o-tolylsulfonyl)ureido)propanamide]: the EC50 under setting [1] fell in the range of 100 to 1000 nM. The same measure, in the same setting: to `Cc1ccccc1S(=O)(=O)NC(=O)N[C@@H](Cc1ccccc1Cl)C(=O)N(C)c1ccc2c(c1)OCO2` [Example 54, (S)—N-(benzo[d][1,3]dioxol-5-yl)-3-(2-chlorophenyl)-N-methyl-2-(3-(o-tolylsulfonyl)ureido)propanamide] belongs 100 to 1000 nM; to `Cc1ccccc1S(=O)(=O)NC(=O)N[C@@H](Cc1cccc(Cl)c1)C(=O)N(C)c1ccc2c(c1)OCO2` [Example 55, (S)—N-(benzo[d][1,3]dioxol-5-yl)-3-(3-chlorophenyl)-N-methyl-2-(3-(o-tolylsulfonyl)ureido)propanamide], 100 to 1000 nM; to `COc1ccc(C[C@H](NC(=O)NS(=O)(=O)c2ccccc2C)C(=O)N(C)c2ccc3c(c2)OCO3)cc1` [Example 56, (S)—N-(benzo[d][1,3]dioxol-5-yl)-3-(4-methoxyphenyl)-N-methyl-2-(3-(o-tolylsulfonyl)ureido)propanamide], 1000 to 10000 nM.

The record behind these values is patent publication US10035760B2, “Inhibitors of human immunodeficiency virus replication” (priority 2013, dated 2018).
